The source made the active and inactive calls. No cut-off for these calls is given here.
Tests used:
Mus musculus [1] = test: Immunomodulatory activity in male C57BL/6 mouse model implanted with mouse B16-F10 cells assessed as increase in CD3+ CD8+ T cells in tumor at 50 mg/kg, po administered once daily for 14 days by flow cytometric analysis (reference value: 3.2 %); type: functional; conditions: time 14 day
4T1 [2] = test: Antitumor activity against mouse 4T1 cells implanted in female BALB/c mouse model assessed as induction of DNA damage by measuring increase in gamma-H2AX expression in tumor co-administrated orally with olaparib as once daily dose via gavage for 14 days by immunohistochemistry analysis; type: functional, cell-based; conditions: route po, time 14.0 day
[3] = biological target: T1, Histone deacetylase 3 (Mus musculus) (UniProt O88895); test: Inhibition of HDAC3 in mouse 4T1 cells assessed as increase in histone H3 acetylation level at 5 to 20 uM incubated for 24 hrs by Western blot analysis; type: cell-based; conditions: dose 5-20 µM
T1 sequence (whole entry): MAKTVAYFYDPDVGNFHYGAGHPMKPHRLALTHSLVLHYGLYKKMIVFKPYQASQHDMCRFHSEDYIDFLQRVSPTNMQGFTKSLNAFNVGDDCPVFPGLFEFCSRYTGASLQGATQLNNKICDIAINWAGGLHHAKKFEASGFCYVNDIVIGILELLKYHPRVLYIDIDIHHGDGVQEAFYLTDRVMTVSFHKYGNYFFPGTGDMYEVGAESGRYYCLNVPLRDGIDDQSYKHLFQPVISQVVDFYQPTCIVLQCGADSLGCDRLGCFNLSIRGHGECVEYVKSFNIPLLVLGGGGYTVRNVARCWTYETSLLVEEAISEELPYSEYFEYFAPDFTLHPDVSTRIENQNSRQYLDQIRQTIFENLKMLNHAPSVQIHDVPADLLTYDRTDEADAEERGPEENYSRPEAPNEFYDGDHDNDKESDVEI

[4] = Toxicity in male C57BL/6 mouse implanted with mouse B16-F10 cells assessed as histopathological changes in heart at 50 mg/kg, po co-administered with NP-19 as once daily dosage via gavage for 14 days by HandE staining based microscopic analysis; type: organism-based; conditions: in vivo, 336 h, time 14 day
[5] = Clearance in male Sprague-Dawley rat at 2 mg/kg, iv measured after 12 hrs by LC-MS/MS analysis; type: ADME, organism-based; conditions: in vivo
Mus musculus [6] = test: In vivo induction of PD-L1 degradation in male C57BL/6 mouse model implanted with mouse B16-F10 cells assessed as decrease in PD-L1 protein expression in tumor at 50 mg/kg, po co-administered with NP-19 as once daily dosage via gavage for 14 days by Western blot analysis; type: functional, organism-based; conditions: time 14.0 day
Histone deacetylase 4 = Histone deacetylase 4 (Homo sapiens, UniProt P56524); test: Inhibition of recombinant HDAC4 (unknown origin) using Boc-Lys(trifluoroacetyl)-AMC as substrate preincubated for 1 hr followed by substrate addition and measured after 2 hrs by fluorescence based micro plate reader analysis
Chain of Histone deacetylase 4 (P56524 whole entry): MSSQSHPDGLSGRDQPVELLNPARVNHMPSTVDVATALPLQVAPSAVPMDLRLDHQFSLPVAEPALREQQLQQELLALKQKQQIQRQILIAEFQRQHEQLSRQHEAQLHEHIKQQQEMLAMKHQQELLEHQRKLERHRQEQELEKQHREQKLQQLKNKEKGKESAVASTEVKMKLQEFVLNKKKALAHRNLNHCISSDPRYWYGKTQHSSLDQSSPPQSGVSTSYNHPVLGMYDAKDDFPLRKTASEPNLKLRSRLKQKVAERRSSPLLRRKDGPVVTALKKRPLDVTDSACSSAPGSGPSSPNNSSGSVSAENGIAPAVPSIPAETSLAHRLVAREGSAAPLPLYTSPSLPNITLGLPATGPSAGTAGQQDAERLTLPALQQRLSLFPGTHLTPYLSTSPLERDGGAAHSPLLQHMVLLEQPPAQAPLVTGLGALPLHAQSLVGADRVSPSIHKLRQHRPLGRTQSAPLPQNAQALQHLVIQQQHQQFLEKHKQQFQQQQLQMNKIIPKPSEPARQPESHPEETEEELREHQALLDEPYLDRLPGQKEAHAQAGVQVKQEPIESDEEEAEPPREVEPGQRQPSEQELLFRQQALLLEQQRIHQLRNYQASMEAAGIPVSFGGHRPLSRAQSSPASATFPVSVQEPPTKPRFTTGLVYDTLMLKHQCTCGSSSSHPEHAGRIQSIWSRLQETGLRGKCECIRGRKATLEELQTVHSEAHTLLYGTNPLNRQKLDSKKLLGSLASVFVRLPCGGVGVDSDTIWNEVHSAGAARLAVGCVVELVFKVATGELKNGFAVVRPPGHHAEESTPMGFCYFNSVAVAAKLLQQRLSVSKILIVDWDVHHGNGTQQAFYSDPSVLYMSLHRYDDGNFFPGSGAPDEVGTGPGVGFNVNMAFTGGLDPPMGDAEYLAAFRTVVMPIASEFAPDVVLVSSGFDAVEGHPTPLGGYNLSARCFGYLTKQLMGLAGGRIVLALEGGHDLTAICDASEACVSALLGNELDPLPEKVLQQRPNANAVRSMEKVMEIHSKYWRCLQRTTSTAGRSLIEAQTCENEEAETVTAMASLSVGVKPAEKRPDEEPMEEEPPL

4T1 [7] = test: Antitumor activity against mouse 4T1 cells implanted in female BALB/c mouse model assessed as decrease in PAPR1 expression in tumor co-administrated orally with olaparib as once daily dose via gavage for 14 days by immunohistochemistry analysis; type: functional, cell-based; conditions: route po, time 14.0 day
Histone deacetylase 2 = Histone deacetylase 2 (Homo sapiens, UniProt Q92769); test: Inhibition of recombinant HDAC2 (unknown origin) using Boc-Lys(acetyl)-AMC as substrate preincubated for 1 hr followed by substrate addition and measured after 2 hrs by fluorescence based micro plate reader analysis
Chain of Histone deacetylase 2 (Q92769 whole entry): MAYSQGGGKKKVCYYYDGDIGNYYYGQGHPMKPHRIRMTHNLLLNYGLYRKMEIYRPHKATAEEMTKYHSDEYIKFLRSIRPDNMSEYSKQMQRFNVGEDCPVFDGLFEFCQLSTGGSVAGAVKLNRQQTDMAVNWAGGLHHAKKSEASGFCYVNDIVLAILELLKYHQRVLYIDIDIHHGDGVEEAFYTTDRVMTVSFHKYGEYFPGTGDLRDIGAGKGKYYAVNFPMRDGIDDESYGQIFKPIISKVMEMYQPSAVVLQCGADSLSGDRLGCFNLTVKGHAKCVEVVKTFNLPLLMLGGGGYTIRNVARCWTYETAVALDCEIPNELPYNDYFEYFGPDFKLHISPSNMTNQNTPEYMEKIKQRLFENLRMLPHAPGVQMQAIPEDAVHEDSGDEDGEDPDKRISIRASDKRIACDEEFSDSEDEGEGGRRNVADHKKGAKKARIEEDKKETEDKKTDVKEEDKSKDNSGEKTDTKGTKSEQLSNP

Mus musculus [8] = test: In vivo induction of PD-L1 degradation in male C57BL/6 mouse model implanted with mouse B16-F10 cells assessed as decrease in PD-L1 protein expression in tumor at 50 mg/kg, po administered once daily via gavage for 14 days by Western blot analysis; type: functional, organism-based; conditions: time 14.0 day
B16-F10 [9] = test: Induction of apoptosis in mouse B16-F10 cells assessed as increase in apoptotic cells at 10 uM incubated for 48 hrs by Annexin V-FITC/PI staining based flow cytometric analysis relative to control; type: functional
[10] = biological target: T1, Histone deacetylase 3 (Mus musculus); test: Inhibition of HDAC3 in mouse B16-F10 cells assessed as increase in acetylated histone H3 level at 5 uM incubated for 24 hrs by DAPI staining based immunofluorescence analysis; type: cell-based
4T1 [11] = test: Antitumor activity against mouse 4T1 cells implanted in female BALB/c mouse model assessed as decrease in PAPR1 expression in tumor co-administrated orally with olaparib as once daily dose via gavage for 14 days by Western blot analysis; type: functional, cell-based; conditions: route po, time 14.0 day
[12] = biological target: Programmed cell death 1 ligand 1 (Mus musculus) (UniProt Q9EP73); test: Induction of PD-L1 degradation in mouse B16-F10 cells assessed as decrease in PD-L1 protein level at 5 uM preincubated with bafilomycin A1 for 4 hrs followed by compound addition and measured after 24 hrs by Western blot analysis; type: cell-based
Chain of Programmed cell death 1 ligand 1 (Mus musculus) (Q9EP73 whole entry): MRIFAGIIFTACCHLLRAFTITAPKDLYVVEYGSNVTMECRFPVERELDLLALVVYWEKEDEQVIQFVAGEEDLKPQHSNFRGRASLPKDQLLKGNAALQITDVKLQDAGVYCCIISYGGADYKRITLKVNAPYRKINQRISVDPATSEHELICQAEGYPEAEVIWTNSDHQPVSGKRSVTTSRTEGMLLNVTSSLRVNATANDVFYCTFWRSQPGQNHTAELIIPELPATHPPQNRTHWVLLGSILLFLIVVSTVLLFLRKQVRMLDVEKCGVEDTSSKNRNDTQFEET

[13] = AUMC (0 to infinity) in male Sprague-Dawley rat at 2 mg/kg, iv measured after 12 hrs by LC-MS/MS analysis; type: ADME, organism-based; conditions: in vivo
[14] = MRT (0 to t) in male Sprague-Dawley rat at 20 mg/kg, po measured after 12 hrs by LC-MS/MS analysis; type: ADME, organism-based; conditions: in vivo
Histone deacetylase 3 = Histone deacetylase 3 (Homo sapiens, UniProt O15379); conditions: dose 500.0 nM, time 3.0 hrs
Chain of Histone deacetylase 3 (O15379 whole entry): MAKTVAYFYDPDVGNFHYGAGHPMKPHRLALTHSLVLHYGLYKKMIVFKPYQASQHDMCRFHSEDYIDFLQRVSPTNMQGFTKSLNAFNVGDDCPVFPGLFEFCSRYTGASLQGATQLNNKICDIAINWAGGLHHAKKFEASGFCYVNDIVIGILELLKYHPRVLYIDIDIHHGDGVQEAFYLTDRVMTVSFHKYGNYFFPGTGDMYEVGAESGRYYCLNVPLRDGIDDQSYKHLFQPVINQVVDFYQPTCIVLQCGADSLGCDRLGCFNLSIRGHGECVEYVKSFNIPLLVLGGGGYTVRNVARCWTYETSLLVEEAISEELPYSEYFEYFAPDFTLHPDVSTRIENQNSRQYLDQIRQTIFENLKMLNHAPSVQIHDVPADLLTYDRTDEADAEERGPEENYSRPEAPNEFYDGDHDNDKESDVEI

Histone deacetylase 7 = Histone deacetylase 7 (Homo sapiens, UniProt Q8WUI4); test: Inhibition of recombinant HDAC7 (unknown origin) using Boc-Lys(trifluoroacetyl)-AMC as substrate preincubated for 1 hr followed by substrate addition and measured after 2 hrs by fluorescence based micro plate reader analysis
Chain of Histone deacetylase 7 (Q8WUI4 whole entry): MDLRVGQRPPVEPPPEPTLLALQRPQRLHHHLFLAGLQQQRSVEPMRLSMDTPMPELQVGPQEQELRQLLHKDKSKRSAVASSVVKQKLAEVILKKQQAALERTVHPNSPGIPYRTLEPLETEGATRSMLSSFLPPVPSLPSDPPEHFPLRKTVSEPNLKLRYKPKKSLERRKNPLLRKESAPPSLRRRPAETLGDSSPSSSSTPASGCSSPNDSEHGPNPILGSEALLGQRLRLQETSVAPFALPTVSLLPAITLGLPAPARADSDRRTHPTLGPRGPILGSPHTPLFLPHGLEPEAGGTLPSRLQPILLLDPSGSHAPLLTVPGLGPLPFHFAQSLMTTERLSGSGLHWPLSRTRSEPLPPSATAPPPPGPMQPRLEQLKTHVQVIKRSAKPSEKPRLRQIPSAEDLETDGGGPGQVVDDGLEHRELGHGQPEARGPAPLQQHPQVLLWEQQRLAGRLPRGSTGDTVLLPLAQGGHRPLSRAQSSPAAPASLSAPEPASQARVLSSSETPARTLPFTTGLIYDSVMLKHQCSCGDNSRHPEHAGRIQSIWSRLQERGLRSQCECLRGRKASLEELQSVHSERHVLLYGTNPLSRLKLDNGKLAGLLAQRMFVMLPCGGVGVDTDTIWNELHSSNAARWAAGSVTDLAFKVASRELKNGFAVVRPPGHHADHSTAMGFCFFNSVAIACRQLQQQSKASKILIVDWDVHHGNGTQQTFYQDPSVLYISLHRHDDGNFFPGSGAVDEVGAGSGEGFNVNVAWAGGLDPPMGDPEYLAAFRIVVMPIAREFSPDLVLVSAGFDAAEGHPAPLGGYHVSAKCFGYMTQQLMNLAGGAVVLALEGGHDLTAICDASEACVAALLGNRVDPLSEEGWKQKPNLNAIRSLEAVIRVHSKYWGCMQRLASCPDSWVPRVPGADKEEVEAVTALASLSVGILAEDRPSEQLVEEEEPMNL

[15] = MRT (0 to t) in male Sprague-Dawley rat at 2 mg/kg, iv measured after 12 hrs by LC-MS/MS analysis; type: ADME, organism-based; conditions: in vivo
4T1 [16] = test: Effect on acetylated alpha-tubulin expression level in mouse 4T1 cells at 5 to 20 uM incubated for 24 hrs by Western blot analysis; type: functional, cell-based; conditions: dose 5-20 µM
B16-F10 [17] = test: cells; type: functional, cell-based; conditions: Mus musculus, B16-F10, 72 h
Description: Antiproliferative activity against mouse B16-F10 cells assessed as inhibition of cell growth incubated for 72 hrs by MTT assay

B16-F10 [18] = test: Downregulation of PARP1 expression in mouse B16-F10 cells at 2 uM incubated for 24 hrs in presence of olaparib by Western blot analysis; type: functional, cell-based
[19] = biological target: Programmed cell death 1 ligand 1 (Mus musculus) (UniProt Q9EP73); test: Induction of PD-L1 degradation in mouse B16-F10 cells assessed as decrease in PD-L1 protein level by measuring maximal efficacy at 10 uM incubated for 24 hrs by Western blot analysis relative to control; type: cell-based
B16-F10 [20] = test: Downregulation of PARP1 expression in mouse B16-F10 cells at 2 uM incubated for 24 hrs by Western blot analysis; type: functional, cell-based
[21] = biological target: Programmed cell death 1 ligand 1 (Mus musculus) (UniProt Q9EP73); test: Induction of PD-L1 degradation in mouse B16-F10 cells assessed as decrease in PD-L1 protein level at 2 uM measured after 24 hrs in presence of CA-074 by Western blot analysis; type: cell-based
Mus musculus [22] = test: In vivo induction of PD-L1 degradation in male C57BL/6 mouse model implanted with mouse B16-F10 cells assessed as decrease in PD-L1 protein expression in tumor at 50 mg/kg, po administered once daily via gavage for 14 days by DAPI staining based immunofluorescence analysis; type: functional, organism-based; conditions: time 14.0 day
[23] = Toxicity in female BALB/c mouse model implanted with mouse 4T1 cells assessed as effect on body weight administrated orally as once daily dose via gavage for 14 days; conditions: in vivo, po, 336 h, time 14 day

CCCNNC(=O)c1ccc(Cn2c3ccccc3c3c(-c4ccccn4)nc4ccccc4c32)cc1
Activity (Mus musculus [1]): 25% | Activity (4T1 [2]): Active | inhibition [3]: Active | Activity [4]: Non-toxic | clearance [5]: 39.6 mL/min/kg | Activity (Mus musculus [6]): Active | IC50 (Histone deacetylase 4): > 10 µM | Activity (4T1 [7]): Active | IC50 (Histone deacetylase 2): 9.77 µM | Activity (Mus musculus [8]): Active | Activity (B16-F10 [9]): 44.7% | inhibition [10]: Active | Activity (4T1 [11]): Active | Activity [12]: Not active; Compound Degrades Pd-L1 Through Lysosomal Pathway | AUMC [13]: 630.022 hr.hr.ug/L | MRT last at 12 h [14]: 4.43 h | inhibition (Histone deacetylase 3): 96% | IC50 (Histone deacetylase 7): > 10 µM | MRT last at 12 h [15]: 0.738 h | Activity (4T1 [16]): inactive | IC50 (B16-F10 [17]): 5.56 µM | Activity (B16-F10 [18]): Active | Emax [19]: 85% | Activity (B16-F10 [20]): Active | Activity [21]: Not active; Ctsb-Mediated Lysosomal Degradation Mechanism Is Observed | Activity (Mus musculus [22]): Active | Activity [23]: Non-toxic

Reference: ChEMBL document CHEMBL6096732 (J Med Chem, 2025)
